Values after ≈ are worked out from the molar mass of the structure shown. Read-outs that look alike come from different tables or passages of the source.
Legend:
leukemia P-388 = test: Anti-tumor activity against leukemia P-388; assay type: in vivo, mouse (CDF1); conditions: for ILS %: i.p. once, 33 days
Description: (§1) Ascites was sampled from the abdominal cavity of tumor-bearing mice (DBA/2) 7 days after transplantation of P-388 ascitic tumor. The number of the P-388 cells in the ascites was counted. A suspension of the tumor cells of 5×10^6 /ml was prepared using sterilized physiological saline, and 0.2 ml of the suspension (containing 1×10^6 cells) was intraperitoneally transplanted to CDF1 mice weighing 20 to 25 g. Twenty-four hours after the transplantation of the tumor, a test compound was intraperitoneally administered once to groups of the CDF1 mice, each group consisting of 6 mice. […] The effect of the compound was evaluated by a ratio of a mean survival days of the group treated with the compound to a mean survival days of the control group (untreated group) after 33 days of observation (Increased Life Span, ILS %).

[1] = tested on: Proteus vulgalis ATCC 6897; test: Antibacterial activity, agar dilution method, pH 7.0 (PV); assay type: cell-based
Description: (§2) Antibacterial activities of some compounds covered by the present invention against various bacteria are shown by the minimum growth inhibitory concentration (μg/ml) in Table 1. The minimum growth inhibitory concentration was measured at pH 7.0 according to the agar dilution method. In the table, bacteria are indicated by the following letters.
PV: Proteus vulgalis ATCC 6897

[2] = tested on: Shigella sonnei ATCC 9290; test: Antibacterial activity, agar dilution method, pH 7.0 (SS); assay type: cell-based
Description: as §2
SS: Shigella sonnei ATCC 9290

[3] = tested on: Streptococcus faecalis ATCC 10541; test: Antibacterial activity, agar dilution method, pH 7.0 (SF); assay type: cell-based; conditions: Enterococcus faecalis
Description: as §2
SF: Streptococcus faecalis ATCC 10541

Bacillus subtilis 10707 = test: Antibacterial activity, agar dilution method, pH 7.0 (BS); assay type: cell-based
Description: as §2
BS: Bacillus subtilis 10707

[4] = tested on: Staphylococcus aureus ATCC 6538P; test: Antibacterial activity, agar dilution method, pH 7.0 (SA); assay type: cell-based; conditions: ATCC6538P
Description: as §2
SA: Staphylococcus aureus ATCC 6538P

[5] = tested on: Klebsiella pneumoniae ATCC 10031; test: microbe, parasite or virus in culture; assay type: cell-based; conditions: ATCC10031, pH 7, read-out: minimum growth inhibitory concentration
Description: The minimum growth inhibitory concentration was measured at pH 7.0 according to the agar dilution method. In the table, bacteria are indicated by the following letters.
KP: Klebsiella pneumoniae ATCC 10031

Sarcoma 180 solid tumor = test: Anti-tumor activity against Sarcoma 180 solid tumor in mice; assay type: in vivo, mouse (ddY strain); conditions: Mus musculus, Sarcoma-180, ip, 168 h; dose reducing tumor volume to 50% of control; intraperitoneal 24 hours after implantation; tumor measured 7 days after implantation
From the text: (§3) Taking some of the compounds falling within the present invention as examples, anti-tumor activity (ED50) against Sarcoma 180 solid tumor and acute toxicity (LD50) as well as effect on peripheral leucocytes number (WBC4000) are shown in Table 2.
(1) Effect against Sarcoma 180 solid tumor cells:
5×10^6 cells of Sarcoma 180 solid tumor were implanted into ddY mice. 7 days later, ascites cells were sampled. The cells were washed once with a sterilized physiological solution of sodium chloride and were used to prepare a cell supspension containing 5×10^7 cells per ml. On each occasion, 0.1 ml of the cell suspension was subcutaneously implanted into the right axilla of a male mouse (ddY strain; body weight 20±2 g). The test compound was dissolved in a physiological solution of sodium chloride with or without addition of Tween 80 and was administered intraperitoneally into each mouse of a group consisting of 5 mice at a dose of 0.1-0.2 ml, 24 hours after the implantation of the tumor cells.
The anti-tumor activity was determined in the following manner. 7 days after the implantation, the major axis (a) and the minor axis (b) of the tumor were measured to calculate a value of "a×b^2 /2" which corresponds to the volume of the tumor. The anti-tumor activity was expressed by the ratio of the volume of the tumors (T) of the group of animals administered with the test compound to the corresponding volume of tumors (C) of the untreated animals.
(2) Determination of ED50 :
On graph paper, T/C (the ratio of the volume of tumors of treated animals to that of control animals) was indicated by an arithmetic scale on the longitudinal axis and the administered amount of the test compound was indicated by a logarithmic scale on the lateral axis. The relationship between the dose and T/C was shown by a straight line determined by the method of least squares, from which a dose corresponding to T/C of 0.5 was obtained.

Acute toxicity in mice = test: Acute toxicity in mice; parameters: species or system mouse (ddY strain); conditions: mouse, in vivo, ip; intraperitoneally once, ddY mice, 14 days observation, Beherns Kaerber's method
Description: as §3
Each animal of the test group consisting of 5 ddY mice was administered intraperitoneally once with a test compound. […] The LD50 was determined by Beherns Kaerber's method.

[6] = tested on: P-388 leukemia resistant to mitomycin C; test: Anti-tumor activity against P-388 leukemia resistant to mitomycin C; assay type: in vivo, mouse (CDF1); conditions: for ILS %: i.p. once
Description: as §1

peripheral leucocytes = test: Effect on the peripheral leucocytes number in tumor-carrying mice; assay type: in vivo, mouse (ddY strain); conditions: dose which reduces peripheral leucocytes number to 4000/mm^3; intraperitoneal, blood 4 days later
From the text: as §3
WBC4000 indicates the dose of a substance which reduces the peripheral leucocytes number to 4000/mm^3.
(4) Effect on the peripheral leucocytes number:
Sarcoma 180 solid tumor cells (5×10^6) were subcutaneously implanted into the right axilla of each mouse (body weight 20±2 g) of a group consisting of 5 male mice (ddY strain). 24 hours after implantation,a test compound was intraperitoneally administered to each animal. 4 days later, blood (each 0.02 ml) was collected from the suborbital plexus vein of each tumor-carrying animal. The collected sample of blood was dispersed in 9.98 ml of Cell-Kit Seven solution. One drop of saponin solution was added to the sample to dissolve erythrocytes and then a microcell counter was used to count the number of leucocytes. On graph paper, the number of leucocytes was indicated on the y-axis by an arithmetic scale and the dose of the test compound was indicated on the x-axis by a logarithmic scale. The relationship between the number of peripheral leucocytes and the dosage of the test compound was plotted and the dosage corresponding to 4000 peripheral leucocytes/mm^3 (about half the number of leucocytes of normal mice) was obtained. This value is denoted in Table 2 by WBC4000.

[7] = pH 7, read-out: minimum growth inhibitory concentration
[8] = ATCC9290, pH 7, read-out: minimum growth inhibitory concentration
[9] = ATCC10541, pH 7, read-out: minimum growth inhibitory concentration
[10] = Bacillus subtilis, 10707, pH 7, read-out: minimum growth inhibitory concentration

SMILES | MIC [1, 7] [µg/mL] | MIC [2, 8] [µg/mL] | MIC [3, 9] [µg/mL] | MIC (Bacillus subtilis 10707; [10]) [µg/mL] | MIC [4, 7] [µg/mL] | MIC [5] [µg/mL] | ED50 (Sarcoma 180 solid tumor) [mg/kg] | LD50 at 336 h (Acute toxicity in mice) [mg/kg] | WEC4000 (peripheral leucocytes) [mg/kg] | other results
C=C1C2=C(C(=O)C(C)=C(N=CN(C)C)C2=O)N2C[C@H]3[C@H](N3C)[C@]12O (stereo partly shown) [Compound 1, 9a-O-Demethyl-7-N-dimethylaminomethylenemitomycin G] | 10 (≈ 30.5 µM) | 10 (≈ 30.5 µM) | 0.078 (≈ 0.238 µM) | 0.078 (≈ 0.238 µM) | 0.078 (≈ 0.238 µM) | 10 (≈ 30.5 µM) |  |  |  | ILS (leukemia P-388; dose 10 mg/kg, similar experiment): 83%
C=C1C2=C(C(=O)C(C)=C(N=CN(C)C)C2=O)N2C[C@@H]3N[C@@H]3[C@]12OC [Compound 2, 1a-Demethyl-7-N-dimethylaminoethylenemitomycin G] | 10 (≈ 30.5 µM) | 20 (≈ 60.9 µM) | 1.3 (≈ 3.96 µM) | 0.078 (≈ 0.238 µM) | 0.31 (≈ 0.944 µM) | 10 (≈ 30.5 µM) |  |  |  | 
CC1=C(N=CN(C)C)C(=O)C2=C(C1=O)N1C[C@H]3[C@H](N3C)[C@]1(O)[C@H]2COC(N)=O (stereo partly shown) [Compound 3a, 7-N-Dimethylaminomethylenemitomycin D] | 20 (≈ 51.4 µM) | > 20 | 5 (≈ 12.8 µM) | 2.5 (≈ 6.42 µM) | 10 (≈ 25.7 µM) | 2.5 (≈ 6.42 µM) | 3.9 | 8.3 | 4.3 | maximum increased life span ([6]; P-388 resistant to mitomycin C, Table 4, maximum over doses): 143%; ILS % ([6]; dose 1.0 mg/kg): 28%; ILS % ([6]; dose 2.0 mg/kg): 103%; ILS % ([6]; dose 4.0 mg/kg): 143%; ILS % ([6]; dose 6.0 mg/kg): 58%; ILS % ([6]; dose 8.0 mg/kg): 51%; maximum increased life span (leukemia P-388; P-388, Table 3, maximum over doses): 213%; ILS % (leukemia P-388; dose 0.25 mg/kg): 28%; ILS % (leukemia P-388; dose 0.5 mg/kg): 53%; ILS % (leukemia P-388; dose 1.0 mg/kg): 58%; ILS % (leukemia P-388; dose 2.0 mg/kg): 58%; ILS % (leukemia P-388; dose 4.0 mg/kg): 145%; ILS % (leukemia P-388; dose 6.0 mg/kg): 213%; ILS % (leukemia P-388; dose 8.0 mg/kg): 98%; anti-tumor activity against leukemia P-388 compared with Compound A (leukemia P-388; in words, versus Compound A): more excellent anti-tumor activity than Compound A
CC1=C(N=CN(C)C)C(=O)C2=C(C1=O)N1C[C@H]3[C@H](N3C)[C@]1(O)[C@H]2COC(=O)N=CN(C)C (stereo partly shown) [Compound 3b, 7-N,N^10-bis(dimethylaminomethylene)mitomycin D] |  |  |  |  |  |  | 20.9 | 26.3 | 18.7 | 
CO[C@]12[C@@H]3[C@H](CN1C1=C(C(=O)C(N=CN(C)C)=C(C)C1=O)[C@@H]2COC(N)=O)N3C (stereo partly shown) [Compound 4a, 7-N-Dimethylaminomethylenemitomycin E] | 20 (≈ 49.6 µM) | 10 (≈ 24.8 µM) | 0.63 (≈ 1.56 µM) | 0.16 (≈ 0.397 µM) | 0.63 (≈ 1.56 µM) | 2.5 (≈ 6.2 µM) |  |  |  | 
CO[C@]12[C@@H]3[C@H](CN1C1=C(C(=O)C(N=CN(C)C)=C(C)C1=O)[C@@H]2COC(=O)N=CN(C)C)N3C (stereo partly shown) [Compound 4b, 7-N,N^10-bis(dimethylaminomethylene)mitomycin E] |  |  | 5 (≈ 10.9 µM) | 2.5 (≈ 5.45 µM) | 10 (≈ 21.8 µM) | 40 (≈ 87.2 µM) |  |  |  | 
CC1=C(N=CN(C)C)C(=O)C2=C(C1=O)N1C[C@H]3[C@H](N3C)[C@]1(O)[C@@H]2COC(N)=O (stereo partly drawn) [Compound 6c, 9-Epi-7-N-dimethylaminomethylenemitomycin D] | 5 (≈ 12.8 µM) | 40 (≈ 103 µM) | 1.3 (≈ 3.34 µM) | 0.63 (≈ 1.62 µM) | 2.5 (≈ 6.42 µM) | 0.63 (≈ 1.62 µM) | 14 | 9.4 | 11.2 | 
CO[C@@]12[C@H](COC(N)=O)C3=C(C(=O)C(C)=C(N)C3=O)N1C[C@@H]1N[C@@H]12 [MM-C, mitomycin C, reference compound] |  |  |  |  |  |  |  |  |  | MIC ([1]; PV, pH 7.0, agar dilution, read-out: minimum growth inhibitory concentration): 0.08 µg/mL (≈ 0.239 µM); MIC ([2]; ATCC9290, SS, pH 7.0, agar dilution, read-out: minimum growth inhibitory concentration): 2.5 µg/mL (≈ 7.48 µM); MIC ([3]; ATCC10541, SF, pH 7.0, agar dilution, read-out: minimum growth inhibitory concentration): 0.31 µg/mL (≈ 0.927 µM); MIC (Bacillus subtilis 10707; Bacillus subtilis, 10707, BS, pH 7.0, agar dilution, read-out: minimum growth inhibitory concentration): 0.04 µg/mL (≈ 0.12 µM); MIC ([4]; SA, pH 7.0, agar dilution, read-out: minimum growth inhibitory concentration): 0.16 µg/mL (≈ 0.479 µM)

Source: patent publication US4748251A, “7-n-aminomethylenemitomycin derivative” (priority 1985, dated 1988)
